According to patent US6630502B2, “Method for preventing, stabilizing or causing regression of atherosclerosis employing a combination of a cholesterol lowering drug and an ace inhibitor” (E.R. Squibb & Sons, Inc., priority 1990, dated 2003):
Marks after values point to notes of the source that are not given here.

Tests used:
[1] = Body weight, mean arterial pressure and heart rate of cholesterol-fed hamsters treated for 8 weeks; format: in vivo, hamster; conditions: at 8 weeks
Experimental: (§1) Male F1 hamsters were fed 0.3% cholesterol and 10% coconut oil.
(§2) Four sets of hamsters were established (n=12-13 per group). The groups were controls, pravastatin (34 mg/kg/day), captopril (100 mg/kg/day) and pravastatin plus captopril (32 and 100 mg/kg/day, respectively). All animals were fed the same atherogenic diet. Pravastatin was delivered via the diet and captopril was gavaged daily. Hamsters in the control and pravastatin groups were gavaged with water. The animals were treated for 8 weeks. At 3 and 6 weeks the animals were fasted overnight and bled to determine plasma cholesterols and triglycerides. At 8 weeks, mean arterial pressure and heart rate were measured and then the animals were fixed by perfusing formalin. The aortic arch was stained with oil red O and the total area of the fatty streak (which consists of macrophage-foam cells) was measured by computer assisted image analysis.

[2] = Plasma lipids of cholesterol-fed hamsters (control and treated); format: in vivo, hamster; conditions: mean ± SD, at 5 weeks, pravastatin 34 mg/kg/day, captopril 100 mg/kg/day, combination 33 + 100 mg/kg/day
Experimental: as §1
Four sets of hamsters were established (n=12-13 per group). […] All animals were fed the same atherogenic diet. Pravastatin was delivered via the diet and captopril was gavaged daily. Hamsters in the control and pravastatin groups were gavaged with water. The animals were treated for 8 weeks. […] At 8 weeks, mean arterial pressure and heart rate were measured and then the animals were fixed by perfusing formalin. The aortic arch was stained with oil red O and the total area of the fatty streak (which consists of macrophage-foam cells) was measured by computer assisted image analysis.

[3] = tested on: fatty streak (macrophage-foam cells) of the aortic arch; assay: Fatty streak area in the aortic arch (oil red O, image analysis) of cholesterol-fed hamsters; format: in vivo, hamster; conditions: 8 weeks; for Fatty Streak Area: mean ± SD, 6 arches per group, pravastatin 34 mg/kg/day, captopril 100 mg/kg/day, combination 33 + 100 mg/kg/day
Experimental: as §1
as §2, with “The groups were controls, pravastatin (34 mg/kg/day), captopril (100 mg/kg/day) and pravastatin plus captopril (32 and 100 mg/kg/day, respectively).” left out

[4] = Body weight, mean arterial pressure and heart rate of cholesterol-fed hamsters treated for 8 weeks; format: in vivo, hamster; conditions: mean ± SD, combination 33 + 100 mg/kg/day; for HR (Heart Rate) / MAP (Mean Arterial Pressure): at 8 weeks, pravastatin 34 mg/kg/day, captopril 100 mg/kg/day; for Body Weight: hamsters on atherogenic diet, 8 weeks, pravastatin 34 mg/kg/day (diet), captopril 100 mg/kg/day (gavage)
[5] = hypercholesterolemic patients; cited from earlier work

Structure (SMILES) | heart rate less than control hamsters ([1]; compared with control hamsters) [%] | mean arterial pressure lower than controls ([1]; compared with control hamsters) [%] | HDL-C [2] | TC [2] | TG [2] | VLDL + LDL-C [2] | reduction of fatty streak (lesion) area compared to control group [3] | Fatty Streak Area [3] | HR (Heart Rate) [4] | MAP (Mean Arterial Pressure) [4] | Body Weight [4] [g] | change of serum cholesterol [5] [%] | increase of HDL [5] [%] | effect on blood pressure ([1]; 34 mg/kg/day) | effect on heart rate ([1]; 34 mg/kg/day)
C[C@H](CS)C(=O)N1CCC[C@H]1C(=O)O [Captopril, 1-[(2S)-3-mercapto-2-methylpropionyl]-L-proline] | 7 | 21 | 72 ± 23 mg/dL | 660 ± 94 mg/dL | 1105 ± 259 mg/dL | 588 ± 83 mg/dL | approximately 50% | 245 ± 154^c μm^2 × 10^3 | 348 ± 22^a beats/min. | 110 ± 17^a mmHg | 133 ± 12 | −18 | 27 | – | –
CC[C@H](C)C(=O)O[C@H]1C[C@H](O)C=C2C=C[C@H](C)[C@H](CC[C@@H](O)C[C@@H](O)CC(=O)O)[C@H]21 [Pravastatin, pravastatin] | – | – | 117 ± 7^a mg/dl | 456 ± 107^a mg/dl | 185 ± 34^a mg/dl | 339 ± 93^a mg/dl | approximately 50% | 248 ± 119^b μm^2 × 10^3 | 355 ± 27 beats/min. | 138 ± 13 mmHg | 139 ± 8 | – | – | no effect | no effect
